Series [1] can be described thus: Inhibition of cell proliferation of human A2780/CDDP cells by MTT assay. It counts as functional, cell-based.
Series [2] is described as follows: Inhibition of cell proliferation of human CDDP-resistant A549 cells by MTT assay. It counts as functional, cell-based. Background: Tetrazolium dyes change colour on reduction, which living cells bring about.
The subject of series [3] is A2780/Taxol. As to the kind of experiment: Inhibition of cell proliferation of human Paclitaxel-resistant A2780/T cells incubated for 48 hrs in presence of PTX by MTT assay. The series is classed as functional, cell-based.
Series [4] has as its system A2780/Taxol. In words: Inhibition of cell proliferation of human Paclitaxel-resistant A2780/T cells at 0.1 uM incubated for 48 hrs in presence of PTX by MTT assay relative to control. It counts as functional.
Series [5] deals with A2780/Taxol. As to the kind of experiment: Inhibition of cell proliferation of human Paclitaxel-resistant A2780/T cells at 10 uM incubated for 48 hrs in presence of PTX by MTT assay relative to control. It counts as functional.
Series [6] has as its system A2780/Taxol. As to the kind of experiment: Inhibition of cell proliferation of human Paclitaxel-resistant A2780/T cells at 0.01 uM incubated for 48 hrs in presence of PTX by MTT assay relative to control. It counts as functional.
Series [7] deals with A2780/Taxol. In words: Inhibition of cell proliferation of human Paclitaxel-resistant A2780/T cells at 1 uM incubated for 48 hrs in presence of PTX by MTT assay relative to control. The series is classed as functional.
For series [8], the target named is T1, ATP-dependent translocase ABCB1 (Homo sapiens, UniProt P08183). In words: Inhibition of P-gp-mediated drug efflux of Rh123 in human Paclitaxel-resistant A2780/T cells at 2 uM measured upto 120 mins by flow cytometry. It counts as cell-based. The note with it: paclitaxel-resistant a2780/t cell, 2 h.
The nature of series [9]: Reversal of paclitaxel resistance in human CDDP-resistant A549 cells assessed as reversal fold by measuring ratio of paclitaxel IC50 to paclitaxel IC50 in presence of test compound by MTT assay. The series is classed as functional, CDDP-resistant A549 cell.
The subject of series [10] is A2780/Taxol. As to the kind of experiment: Reversal of paclitaxel resistance in human Paclitaxel-resistant A2780/T cells assessed as reversal fold by measuring ratio of paclitaxel IC50 to paclitaxel IC50 in presence of test compound at 1 uM incubated for 48 hrs by MTT assay. The series is classed as functional.
For series [11], the target named is T1, ATP-dependent translocase ABCB1. In words: Binding affinity to CM5 sensor chip-immobilized human P-gp assessed as dissociation constant by SPR analysis. (In general: In SPR one partner is held on a chip, and binding of the other changes the refractive index at the surface.)
In series [12] the test system is A2780/Taxol. In words: Reversal of paclitaxel resistance in human Paclitaxel-resistant A2780/T cells by MTT assay. The series is classed as functional, cell-based.
Series [13] addresses Multidrug resistance-associated protein 1 (Homo sapiens, UniProt P33527). As to the kind of experiment: Inhibition of MRP1 in human Paclitaxel-resistant A2780/T cells at high concentration incubated for 48 hrs by Western blot analysis. It counts as cell-based. The note with it: paclitaxel-resistant a2780/t cell. In general terms: In western blotting, separated proteins are transferred to a membrane and probed.

For series [14], the target named is T2, Broad substrate specificity ATP-binding cassette transporter ABCG2 (Homo sapiens, UniProt Q9UNQ0).
T2 sequence (Q9UNQ0 whole entry): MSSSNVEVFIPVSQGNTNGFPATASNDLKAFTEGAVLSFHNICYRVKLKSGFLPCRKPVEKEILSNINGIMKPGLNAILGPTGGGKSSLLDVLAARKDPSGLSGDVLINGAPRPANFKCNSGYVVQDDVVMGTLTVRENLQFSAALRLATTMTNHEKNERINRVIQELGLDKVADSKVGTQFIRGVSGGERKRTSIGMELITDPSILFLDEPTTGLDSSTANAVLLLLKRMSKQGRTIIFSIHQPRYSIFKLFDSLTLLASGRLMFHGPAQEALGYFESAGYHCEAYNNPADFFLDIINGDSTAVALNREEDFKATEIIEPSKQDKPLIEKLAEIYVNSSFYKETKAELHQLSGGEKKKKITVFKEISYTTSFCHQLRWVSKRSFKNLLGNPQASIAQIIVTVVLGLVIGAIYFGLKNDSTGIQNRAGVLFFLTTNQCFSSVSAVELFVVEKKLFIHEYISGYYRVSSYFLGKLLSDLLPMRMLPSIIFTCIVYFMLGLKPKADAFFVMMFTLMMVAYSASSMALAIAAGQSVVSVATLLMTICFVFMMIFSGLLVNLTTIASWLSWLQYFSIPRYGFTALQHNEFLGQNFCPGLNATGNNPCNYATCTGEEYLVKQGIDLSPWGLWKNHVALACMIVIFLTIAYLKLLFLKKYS
As to the kind of experiment: Inhibition of ABCG2 in human Paclitaxel-resistant A2780/T cells at high concentration incubated for 48 hrs by Western blot analysis. It counts as cell-based. The note with it: paclitaxel-resistant a2780/t cell.

Series [15] is described as follows: Reversal of paclitaxel resistance in human A2780/CDDP cells assessed as reversal fold by measuring ratio of paclitaxel IC50 to paclitaxel IC50 in presence of test compound by MTT assay. It counts as functional.
Series [16] relates to A2780/Taxol. As to the kind of experiment: Induction of intracellular Rh123 accumulation in human Paclitaxel-resistant A2780/T cells incubated for 4 hrs by flow cytometry. The series is classed as functional, cell-based. Particulars: dose 0.5-2 µM; call rule not given here.
The target of series [17] is T1, ATP-dependent translocase ABCB1. As to the kind of experiment: Inhibition of P-gp in human Paclitaxel-resistant A2780/T cells incubated for 48 hrs by Western blot analysis. It counts as cell-based. The note with it: paclitaxel-resistant a2780/t cell, 10 µM.

T1 sequence (P08183 whole entry): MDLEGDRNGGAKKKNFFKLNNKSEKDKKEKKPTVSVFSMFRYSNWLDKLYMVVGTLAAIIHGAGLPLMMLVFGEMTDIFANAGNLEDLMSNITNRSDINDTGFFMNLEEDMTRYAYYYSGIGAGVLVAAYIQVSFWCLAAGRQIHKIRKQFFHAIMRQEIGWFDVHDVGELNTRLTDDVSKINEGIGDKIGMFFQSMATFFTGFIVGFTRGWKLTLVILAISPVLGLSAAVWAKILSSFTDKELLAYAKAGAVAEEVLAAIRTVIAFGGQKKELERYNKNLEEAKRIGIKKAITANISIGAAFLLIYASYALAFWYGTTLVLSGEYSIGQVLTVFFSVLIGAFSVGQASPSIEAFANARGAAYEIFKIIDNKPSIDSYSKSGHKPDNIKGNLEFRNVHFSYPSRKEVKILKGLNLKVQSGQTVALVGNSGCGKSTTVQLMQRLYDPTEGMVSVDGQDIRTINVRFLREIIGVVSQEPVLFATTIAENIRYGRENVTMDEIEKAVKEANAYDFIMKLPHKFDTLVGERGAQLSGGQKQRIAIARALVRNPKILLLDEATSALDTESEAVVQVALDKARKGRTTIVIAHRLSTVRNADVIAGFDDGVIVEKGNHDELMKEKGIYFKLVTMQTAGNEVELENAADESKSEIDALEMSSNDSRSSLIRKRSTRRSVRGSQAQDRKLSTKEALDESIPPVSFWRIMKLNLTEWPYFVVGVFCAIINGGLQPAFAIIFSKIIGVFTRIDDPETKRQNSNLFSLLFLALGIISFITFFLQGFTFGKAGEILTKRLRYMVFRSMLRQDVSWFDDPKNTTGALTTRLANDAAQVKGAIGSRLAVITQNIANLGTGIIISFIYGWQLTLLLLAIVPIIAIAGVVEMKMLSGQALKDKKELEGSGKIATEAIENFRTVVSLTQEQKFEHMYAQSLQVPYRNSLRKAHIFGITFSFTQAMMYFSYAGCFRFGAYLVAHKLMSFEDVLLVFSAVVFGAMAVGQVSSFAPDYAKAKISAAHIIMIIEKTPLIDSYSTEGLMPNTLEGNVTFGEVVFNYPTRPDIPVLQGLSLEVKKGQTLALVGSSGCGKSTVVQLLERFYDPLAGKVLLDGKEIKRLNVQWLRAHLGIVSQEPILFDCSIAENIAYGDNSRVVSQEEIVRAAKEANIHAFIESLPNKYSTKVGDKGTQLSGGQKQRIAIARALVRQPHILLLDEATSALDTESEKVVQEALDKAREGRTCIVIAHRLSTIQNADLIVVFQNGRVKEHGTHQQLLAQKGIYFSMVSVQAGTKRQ
Sequence of Multidrug resistance-associated protein 1 (P33527 whole entry): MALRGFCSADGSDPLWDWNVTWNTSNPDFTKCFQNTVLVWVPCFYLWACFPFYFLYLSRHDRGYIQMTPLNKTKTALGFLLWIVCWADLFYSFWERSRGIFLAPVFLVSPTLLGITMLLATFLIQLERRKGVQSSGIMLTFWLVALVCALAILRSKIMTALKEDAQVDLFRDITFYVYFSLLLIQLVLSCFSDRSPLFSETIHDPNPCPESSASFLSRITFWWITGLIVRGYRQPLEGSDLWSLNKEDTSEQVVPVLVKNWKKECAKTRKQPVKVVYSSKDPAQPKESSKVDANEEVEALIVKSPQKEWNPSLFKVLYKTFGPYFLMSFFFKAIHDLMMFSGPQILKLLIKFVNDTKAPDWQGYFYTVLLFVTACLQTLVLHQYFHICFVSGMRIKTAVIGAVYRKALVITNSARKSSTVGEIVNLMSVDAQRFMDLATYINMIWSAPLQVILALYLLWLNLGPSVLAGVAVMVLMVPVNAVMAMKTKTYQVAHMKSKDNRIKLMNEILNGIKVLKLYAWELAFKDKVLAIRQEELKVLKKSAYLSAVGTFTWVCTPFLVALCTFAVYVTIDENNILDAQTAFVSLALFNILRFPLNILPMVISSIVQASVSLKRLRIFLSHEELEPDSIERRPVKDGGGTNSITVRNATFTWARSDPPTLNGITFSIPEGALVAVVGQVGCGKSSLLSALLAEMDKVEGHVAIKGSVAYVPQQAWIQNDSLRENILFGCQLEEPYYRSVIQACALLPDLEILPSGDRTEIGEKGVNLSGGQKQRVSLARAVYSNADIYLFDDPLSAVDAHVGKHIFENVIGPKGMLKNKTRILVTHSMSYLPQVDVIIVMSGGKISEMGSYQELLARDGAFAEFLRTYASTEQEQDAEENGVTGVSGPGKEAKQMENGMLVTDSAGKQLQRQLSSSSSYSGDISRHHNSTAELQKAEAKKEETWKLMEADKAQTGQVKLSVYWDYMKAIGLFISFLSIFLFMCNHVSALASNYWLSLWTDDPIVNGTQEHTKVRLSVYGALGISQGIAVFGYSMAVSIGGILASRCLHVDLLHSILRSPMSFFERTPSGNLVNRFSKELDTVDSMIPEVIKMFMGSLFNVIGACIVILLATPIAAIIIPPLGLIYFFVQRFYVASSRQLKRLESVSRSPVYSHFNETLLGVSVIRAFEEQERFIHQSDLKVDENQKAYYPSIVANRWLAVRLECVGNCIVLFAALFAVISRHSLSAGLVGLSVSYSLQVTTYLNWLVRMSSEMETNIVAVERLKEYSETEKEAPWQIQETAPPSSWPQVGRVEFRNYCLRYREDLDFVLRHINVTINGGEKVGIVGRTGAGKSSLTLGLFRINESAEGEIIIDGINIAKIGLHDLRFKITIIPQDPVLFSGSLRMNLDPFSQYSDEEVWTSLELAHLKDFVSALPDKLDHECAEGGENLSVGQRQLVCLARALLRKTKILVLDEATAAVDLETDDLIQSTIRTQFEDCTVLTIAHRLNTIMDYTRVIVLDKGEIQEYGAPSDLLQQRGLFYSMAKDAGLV

A word on the IC50: it is the concentration at which inhibition is half-maximal. By inhibition is commonly meant how much of the control response was suppressed. `CC(=O)O[C@H]1C(=O)[C@@]2(C)[C@H]([C@H](OC(=O)c3ccccc3)[C@]3(O)C[C@H](OC(=O)[C@H](O)[C@@H](NC(=O)c4ccccc4)c4ccccc4)C(C)=C1C3(C)C)[C@]1(OC(C)=O)CO[C@@H]1C[C@@H]2O` [PACLITAXEL]: the figures for the concentration for half-maximal inhibition (IC50) (in series [1]; in [2]; with A2780/Taxol [3]) were 55.2 µM, 27.2 µM and 14.1 µM, respectively. For the same compound, the inhibition at 0.1 µM with A2780/Taxol [4] stood at 35%. Moreover, the inhibition at 10 µM in the series with A2780/Taxol [5] worked out at 35%. Moreover, the inhibition at 0.01 µM in the series on A2780/Taxol [6] was determined as 9%. Also, the inhibition at 1 µM in the series on A2780/Taxol [7] is 9%.

One may read the Kd as the free concentration of one partner at which half of the binding sites on the other are occupied at equilibrium, for simple one-to-one binding. Broadly, the EC50 is the concentration at which the effect is half-maximal. As for `COc1cc(-c2ccc(CNC(=O)c3cn(C)c4ccccc34)nc2)cc(OC)c1OC`, the “inhibition (INH)” value in series [8] is “Active”; in series [13], “Active”; in series [14], “Not_active”; in [17], “Dose-dependent-effect”. The “Ratio IC50” value in [9] is listed as 7; in the series with A2780/Taxol [10], 156; in series [15], 11. The Kd in series [11] is 0.798 µM. Further, the IC50 in the series with A2780/Taxol [3] was greater than 50 µM. In the series with A2780/Taxol [12], the EC50 stood at 0.088 µM. For the same compound, the inhibition at 10 µM in the series with A2780/Taxol [5] is 88%. In addition, in the series on A2780/Taxol [7], the inhibition at 1 µM stood at 55%. Further, in the series with A2780/Taxol [16], the Activity entry was “Dose-dependent-effect; Activity Was Observed Superior To Vrp”.

`Cn1cc(C(=O)NCc2ccc(-c3ccccc3)cn2)c2ccccc21`: the “Ratio IC50” value in series [9] is on record as 3; in the series with A2780/Taxol [10] it was 18; in [15] it was 5. Further, the equilibrium dissociation constant (Kd) in series [11] stood at 1.66 µM. In the series on A2780/Taxol [3], the IC50 was greater than 50 µM. Besides, in the series on A2780/Taxol [5], the inhibition at 10 µM was found to be 81%. For the same compound, the inhibition at 1 µM in the series with A2780/Taxol [7] was 30%.

`Cn1cc(C(=O)NCc2ccc(-c3cccc4ccccc34)cn2)c2ccccc21`: the “Ratio IC50” value in series [9] was 4; with A2780/Taxol [10], 138; in series [15], 6. Further, the concentration for half-maximal inhibition (IC50) with A2780/Taxol [3] was greater than 50 µM. For the same compound, in the series on A2780/Taxol [12], the EC50 worked out at 0.126 µM. Besides, the inhibition at 10 µM with A2780/Taxol [5] came out at 83%. Also, in the series on A2780/Taxol [7], the inhibition at 1 µM came to 46%.

As for `COc1ccc(-c2ccc(CNC(=O)c3cn(C)c4ccccc34)nc2)cc1F`, the “Ratio IC50” value in the series with A2780/Taxol [10] worked out at 78. Also, the IC50 with A2780/Taxol [3] is greater than 50 µM. In addition, the inhibition at 10 µM in the series with A2780/Taxol [5] stood at 71%. For the same compound, the inhibition at 1 µM with A2780/Taxol [7] worked out at 40%.

Turning to `Cn1cc(C(=O)NCc2ccc(-c3ccc(OCc4ccccc4)cc3)cn2)c2ccccc21`, in the series with A2780/Taxol [10], the “Ratio IC50” value was 54. In the series on A2780/Taxol [3], the 50% inhibitory concentration (IC50) is greater than 50 µM. For the same compound, the inhibition at 10 µM in the series with A2780/Taxol [5] was 78%. For the same compound, the inhibition at 1 µM with A2780/Taxol [7] was found to be 41%.
